Laboratory results as given in patent US10245261B2, “Substituted indol-5-ol derivatives and their therapeutic applications” (NantBioScience, Inc., priority 2013, dated 2019).

Columns and labels:
Assay in all cases: KinaseProfiler kinase assay
Assay type in all cases: biochemical
PRK2(h) = PRK2(h) (Homo sapiens, UniProt Q16513)
Summary of the method: (§1)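 Compounds were serially diluted from DMSO into 20 mM MOPS buffer with EDTA, Brij-35, glycerol, β-mercaptoethanol and 1 mg/mL BSA. Reactions started with MgATP/[γ-33P]ATP, ran 40 min at room temperature, and phosphorylation was measured by scintillation counting after filtermat capture.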

MAPKAP-K2(h) = MAPKAP-K2(h) (Homo sapiens, UniProt P49137)
Summary of the method: as §1

EphA8(h) = EphA8(h) (Homo sapiens, UniProt P29322)
Summary of the method: as §1

MST2(h) = MST2(h) (Homo sapiens, UniProt Q13188)
Summary of the method: as §1

Txk(h) = Txk(h) (Homo sapiens, UniProt P42681)
Summary of the method: as §1

ASK1(h) = ASK1(h) (Homo sapiens, UniProt Q99683)
ASK1(h), sequence (Q99683 whole entry): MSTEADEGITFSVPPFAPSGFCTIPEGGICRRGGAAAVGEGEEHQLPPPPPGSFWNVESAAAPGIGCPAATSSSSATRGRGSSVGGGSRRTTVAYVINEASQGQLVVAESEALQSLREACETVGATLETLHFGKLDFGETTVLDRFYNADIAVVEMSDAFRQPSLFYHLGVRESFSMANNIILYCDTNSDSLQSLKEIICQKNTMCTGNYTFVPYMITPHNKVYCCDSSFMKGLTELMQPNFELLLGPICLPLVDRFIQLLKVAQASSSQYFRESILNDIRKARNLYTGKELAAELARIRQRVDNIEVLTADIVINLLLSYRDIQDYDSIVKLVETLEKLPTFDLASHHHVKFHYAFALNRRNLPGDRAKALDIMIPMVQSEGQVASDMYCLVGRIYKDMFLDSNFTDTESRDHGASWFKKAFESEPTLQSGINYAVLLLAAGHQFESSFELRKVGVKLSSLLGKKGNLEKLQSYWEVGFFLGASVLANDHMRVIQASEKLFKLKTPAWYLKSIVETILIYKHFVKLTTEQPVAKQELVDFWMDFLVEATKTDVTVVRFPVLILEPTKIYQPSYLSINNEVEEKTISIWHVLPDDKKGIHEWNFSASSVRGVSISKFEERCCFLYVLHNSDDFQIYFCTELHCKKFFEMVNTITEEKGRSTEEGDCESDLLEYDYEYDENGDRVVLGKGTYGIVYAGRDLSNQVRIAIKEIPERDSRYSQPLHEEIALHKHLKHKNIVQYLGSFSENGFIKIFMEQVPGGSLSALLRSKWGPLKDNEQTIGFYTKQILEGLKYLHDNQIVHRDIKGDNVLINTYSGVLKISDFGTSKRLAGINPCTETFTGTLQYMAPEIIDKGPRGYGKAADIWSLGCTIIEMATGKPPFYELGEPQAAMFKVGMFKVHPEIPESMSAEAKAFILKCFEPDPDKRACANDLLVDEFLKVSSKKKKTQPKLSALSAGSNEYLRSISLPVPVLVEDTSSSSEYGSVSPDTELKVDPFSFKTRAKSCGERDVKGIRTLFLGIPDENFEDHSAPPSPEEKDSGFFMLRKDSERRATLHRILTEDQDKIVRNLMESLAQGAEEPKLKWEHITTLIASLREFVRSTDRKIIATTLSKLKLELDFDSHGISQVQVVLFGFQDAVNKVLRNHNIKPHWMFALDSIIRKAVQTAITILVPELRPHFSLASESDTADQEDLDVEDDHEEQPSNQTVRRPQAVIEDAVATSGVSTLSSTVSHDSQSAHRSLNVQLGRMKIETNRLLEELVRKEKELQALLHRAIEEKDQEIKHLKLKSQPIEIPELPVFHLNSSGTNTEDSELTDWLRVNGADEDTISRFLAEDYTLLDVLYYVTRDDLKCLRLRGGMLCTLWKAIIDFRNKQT
Summary of the method: as §1

Ros(h) = Ros(h) (Homo sapiens, UniProt P08922)
Summary of the method: as §1

PKCγ(h) = PKCγ(h) (Homo sapiens, UniProt P05129)
Summary of the method: as §1

EphA7(h) = EphA7(h) (Homo sapiens, UniProt Q15375)
EphA7(h), sequence (Q15375 28-998): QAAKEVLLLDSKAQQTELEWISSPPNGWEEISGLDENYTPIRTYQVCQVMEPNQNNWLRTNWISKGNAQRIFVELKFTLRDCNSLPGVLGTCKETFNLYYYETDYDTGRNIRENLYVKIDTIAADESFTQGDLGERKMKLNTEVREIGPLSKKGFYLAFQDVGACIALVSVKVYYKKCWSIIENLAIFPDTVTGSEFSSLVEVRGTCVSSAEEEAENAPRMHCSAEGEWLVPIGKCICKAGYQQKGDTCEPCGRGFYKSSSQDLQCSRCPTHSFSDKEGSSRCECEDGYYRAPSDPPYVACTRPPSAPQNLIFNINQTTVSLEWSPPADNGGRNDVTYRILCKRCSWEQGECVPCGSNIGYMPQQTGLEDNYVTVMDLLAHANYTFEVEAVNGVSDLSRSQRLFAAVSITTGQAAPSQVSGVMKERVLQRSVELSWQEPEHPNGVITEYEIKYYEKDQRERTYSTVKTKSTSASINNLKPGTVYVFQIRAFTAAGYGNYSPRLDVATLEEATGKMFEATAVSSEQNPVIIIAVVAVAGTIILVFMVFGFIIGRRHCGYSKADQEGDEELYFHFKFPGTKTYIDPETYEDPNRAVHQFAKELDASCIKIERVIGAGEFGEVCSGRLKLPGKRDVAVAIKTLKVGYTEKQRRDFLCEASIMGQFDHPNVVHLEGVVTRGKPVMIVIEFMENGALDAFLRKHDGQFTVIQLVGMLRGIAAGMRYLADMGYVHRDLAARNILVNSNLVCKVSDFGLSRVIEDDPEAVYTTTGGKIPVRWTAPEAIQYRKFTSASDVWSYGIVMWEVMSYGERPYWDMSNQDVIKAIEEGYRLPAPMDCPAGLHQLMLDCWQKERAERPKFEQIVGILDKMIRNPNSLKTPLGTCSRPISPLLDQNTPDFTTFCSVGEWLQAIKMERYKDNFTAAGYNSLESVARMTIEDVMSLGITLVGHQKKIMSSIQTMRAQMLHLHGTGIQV
Summary of the method: as §1

Src(1-530)(h) = target: T1, Src(1-530)(h) (Homo sapiens, UniProt P12931)
T1 construct: Src(1-530)(h)
Summary of the method: as §1

CK2α2(h) = CK2α2(h) (Homo sapiens, UniProt P19784)
Summary of the method: as §1

Plk1(h) = Plk1(h) (Homo sapiens, UniProt P53350)
Plk1(h), sequence (P53350 whole entry): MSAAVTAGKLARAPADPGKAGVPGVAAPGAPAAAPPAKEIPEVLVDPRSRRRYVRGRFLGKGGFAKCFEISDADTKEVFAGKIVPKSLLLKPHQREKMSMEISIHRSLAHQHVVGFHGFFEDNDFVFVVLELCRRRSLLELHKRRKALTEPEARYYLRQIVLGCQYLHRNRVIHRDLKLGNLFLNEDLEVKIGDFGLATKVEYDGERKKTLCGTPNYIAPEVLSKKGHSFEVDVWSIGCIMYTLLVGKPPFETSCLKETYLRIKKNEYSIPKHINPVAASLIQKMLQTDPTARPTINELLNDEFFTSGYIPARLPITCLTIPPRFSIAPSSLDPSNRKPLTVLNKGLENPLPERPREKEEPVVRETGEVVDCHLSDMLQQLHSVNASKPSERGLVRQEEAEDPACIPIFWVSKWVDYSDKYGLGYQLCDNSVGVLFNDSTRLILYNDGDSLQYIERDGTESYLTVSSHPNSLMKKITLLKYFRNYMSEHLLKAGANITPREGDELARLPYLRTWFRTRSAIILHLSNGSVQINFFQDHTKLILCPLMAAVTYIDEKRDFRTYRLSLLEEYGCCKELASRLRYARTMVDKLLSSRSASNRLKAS
Summary of the method: as §1

SGK2(h) = SGK2(h) (Homo sapiens, UniProt Q9HBY8)
SGK2(h), sequence (Q9HBY8 whole entry): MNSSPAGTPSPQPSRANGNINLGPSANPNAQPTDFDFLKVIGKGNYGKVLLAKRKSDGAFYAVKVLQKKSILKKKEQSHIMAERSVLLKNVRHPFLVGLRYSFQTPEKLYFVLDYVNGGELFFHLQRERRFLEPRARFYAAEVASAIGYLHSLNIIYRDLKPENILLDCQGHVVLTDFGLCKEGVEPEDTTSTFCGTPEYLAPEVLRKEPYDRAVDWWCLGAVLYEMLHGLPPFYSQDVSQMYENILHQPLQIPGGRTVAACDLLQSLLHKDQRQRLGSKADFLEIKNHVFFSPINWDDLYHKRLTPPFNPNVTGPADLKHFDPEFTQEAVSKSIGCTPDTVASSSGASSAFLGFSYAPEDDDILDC
Summary of the method: as §1

MLK1(h) = MLK1(h) (Homo sapiens, UniProt P80192)
Summary of the method: as §1

Plk3(h) = Plk3(h) (Homo sapiens, UniProt Q9H4B4)
Plk3(h), sequence (Q9H4B4 whole entry): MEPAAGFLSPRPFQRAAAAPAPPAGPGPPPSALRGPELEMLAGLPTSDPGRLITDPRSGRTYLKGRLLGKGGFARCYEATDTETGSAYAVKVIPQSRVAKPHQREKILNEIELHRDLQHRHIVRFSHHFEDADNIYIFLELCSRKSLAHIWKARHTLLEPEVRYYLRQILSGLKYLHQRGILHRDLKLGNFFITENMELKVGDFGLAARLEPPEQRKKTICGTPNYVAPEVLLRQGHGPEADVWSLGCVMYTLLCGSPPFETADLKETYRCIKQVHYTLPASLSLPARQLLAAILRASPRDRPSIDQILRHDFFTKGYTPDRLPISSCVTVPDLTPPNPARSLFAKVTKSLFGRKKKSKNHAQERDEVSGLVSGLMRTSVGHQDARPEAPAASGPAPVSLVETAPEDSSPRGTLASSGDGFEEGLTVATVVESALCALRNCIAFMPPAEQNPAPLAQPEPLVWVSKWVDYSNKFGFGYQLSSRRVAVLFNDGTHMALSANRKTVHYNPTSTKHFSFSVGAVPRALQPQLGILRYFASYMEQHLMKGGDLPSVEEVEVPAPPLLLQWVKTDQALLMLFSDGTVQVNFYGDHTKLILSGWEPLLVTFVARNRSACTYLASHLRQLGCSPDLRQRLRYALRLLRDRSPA
Summary of the method: as §1

PDGFRα(V561D)(h) = PDGFRα(V561D)(h) (Homo sapiens, UniProt P16234, V561D)
Summary of the method: as §1

Haspin(h) = Haspin(h) (Homo sapiens, UniProt Q8TF76)
Summary of the method: as §1

PKCμ(h) = PKCμ(h) (Homo sapiens, UniProt Q15139)
Summary of the method: as §1

PDGFRα(h) = PDGFRα(h) (Homo sapiens, UniProt P16234)
Summary of the method: as §1

[1] = target: PI3 Kinase (p110α/p65α)(h) (Homo sapiens, UniProt P42336)
Summary of the method: as §1

MRCKα(h) = MRCKα(h) (Homo sapiens, UniProt Q5VT25)
Summary of the method: as §1

PAK2(h) = PAK2(h) (Homo sapiens, UniProt Q13177)
PAK2(h), sequence (Q13177 whole entry): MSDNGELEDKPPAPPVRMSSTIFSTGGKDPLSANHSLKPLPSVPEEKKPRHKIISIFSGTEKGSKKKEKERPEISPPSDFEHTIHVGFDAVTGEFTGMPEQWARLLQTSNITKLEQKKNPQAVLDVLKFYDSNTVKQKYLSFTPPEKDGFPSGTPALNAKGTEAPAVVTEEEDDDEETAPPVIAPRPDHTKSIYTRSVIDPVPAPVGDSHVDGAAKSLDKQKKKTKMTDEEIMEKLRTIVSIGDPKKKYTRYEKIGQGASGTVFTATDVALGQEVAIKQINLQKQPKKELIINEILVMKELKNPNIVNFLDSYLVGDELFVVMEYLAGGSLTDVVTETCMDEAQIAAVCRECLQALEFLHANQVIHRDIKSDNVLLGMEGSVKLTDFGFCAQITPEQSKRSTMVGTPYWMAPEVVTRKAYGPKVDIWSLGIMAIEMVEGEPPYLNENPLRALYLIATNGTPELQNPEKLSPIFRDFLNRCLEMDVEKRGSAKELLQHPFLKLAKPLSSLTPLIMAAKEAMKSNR
Summary of the method: as §1

TAO3(h) = TAO3(h) (Homo sapiens, UniProt Q9H2K8)
Summary of the method: as §1

FGFR2(N549H)(h) = FGFR2(N549H)(h) (Homo sapiens, UniProt P21802, N549H)
Summary of the method: as §1

Snk(h) = Snk(h) (Homo sapiens, UniProt Q9NYY3)
Summary of the method: as §1

PKCζ(h) = PKCζ(h) (Homo sapiens, UniProt Q05513)
PKCζ(h), sequence (Q05513 whole entry): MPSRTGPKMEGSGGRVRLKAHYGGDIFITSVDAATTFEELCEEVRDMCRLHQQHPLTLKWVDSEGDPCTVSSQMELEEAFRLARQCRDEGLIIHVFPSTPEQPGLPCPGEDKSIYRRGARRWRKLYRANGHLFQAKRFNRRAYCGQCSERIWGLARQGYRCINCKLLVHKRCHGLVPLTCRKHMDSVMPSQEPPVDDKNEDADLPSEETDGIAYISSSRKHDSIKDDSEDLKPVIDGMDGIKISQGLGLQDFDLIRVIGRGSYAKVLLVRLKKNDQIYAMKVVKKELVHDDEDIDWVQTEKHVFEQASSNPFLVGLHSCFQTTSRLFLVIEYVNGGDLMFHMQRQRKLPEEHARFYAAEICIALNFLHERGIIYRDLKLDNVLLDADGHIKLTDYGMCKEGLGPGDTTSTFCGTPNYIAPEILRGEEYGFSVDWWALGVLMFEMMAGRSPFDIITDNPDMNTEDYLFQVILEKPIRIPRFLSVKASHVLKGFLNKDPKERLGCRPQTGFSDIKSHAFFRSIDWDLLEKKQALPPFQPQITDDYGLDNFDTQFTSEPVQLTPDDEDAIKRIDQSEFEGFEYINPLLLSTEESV
Summary of the method: as §1

STK33(h) = STK33(h) (Homo sapiens, UniProt Q9BYT3)
Summary of the method: as §1

Lyn(h) = Lyn(h) (Homo sapiens, UniProt P07948)
Summary of the method: as §1

GSK3β(h) = GSK3β(h) (Homo sapiens, UniProt P49841)
Summary of the method: as §1

BrSK2(h) = BrSK2(h) (Homo sapiens, UniProt Q8IWQ3)
Summary of the method: as §1

Mnk2(h) = Mnk2(h) (Homo sapiens, UniProt Q9HBH9)
Summary of the method: as §1

PAK6(h) = PAK6(h) (Homo sapiens, UniProt Q9NQU5)
Summary of the method: as §1

| SMILES | inhibition at 0.1 µM (PRK2(h)) [%] | inhibition at 0.1 µM (MAPKAP-K2(h)) [%] | inhibition at 0.1 µM (EphA8(h)) [%] | inhibition at 0.1 µM (MST2(h)) [%] | inhibition at 0.1 µM (Txk(h)) [%] | inhibition at 0.1 µM (ASK1(h)) [%] | inhibition at 0.1 µM (Ros(h)) [%] | inhibition at 0.1 µM (PKCγ(h)) [%] | inhibition at 0.1 µM (EphA7(h)) [%] | inhibition at 0.1 µM (Src(1-530)(h)) [%] | inhibition at 0.1 µM (CK2α2(h)) [%] | inhibition at 0.1 µM (Plk1(h)) [%] | inhibition at 0.1 µM (SGK2(h)) [%] | inhibition at 0.1 µM (MLK1(h)) [%] | inhibition at 0.1 µM (Plk3(h)) [%] | inhibition at 0.1 µM (PDGFRα(V561D)(h)) [%] | inhibition at 0.1 µM (Haspin(h)) [%] | inhibition at 0.1 µM (PKCμ(h)) [%] | inhibition at 0.1 µM (PDGFRα(h)) [%] | inhibition at 0.1 µM [1] [%] | other results |
| --- | --- | --- | --- | --- | --- | --- | --- | --- | --- | --- | --- | --- | --- | --- | --- | --- | --- | --- | --- | --- | --- |
| Cc1cc2c(F)c(Oc3nc(Nc4cc(C5CC5)[nH]n4)cc(N4CCN(C)CC4)n3)ccc2[nH]1 [Compound 10] | 51 | -7 | 33 | 24 | 75 | -14 | 12 | -8 | 23 | 101 | -13 | -9 | -41 | 84 | 1 | 86 | 0 | 7 | -3 | -6 | inhibition at 0.1 µM (MRCKα(h)): 2%; inhibition at 0.1 µM (PAK2(h)): 16%; inhibition at 0.1 µM (TAO3(h)): 20%; inhibition at 0.1 µM (FGFR2(N549H)(h)): 100%; inhibition at 0.1 µM (Snk(h)): 9%; inhibition at 0.1 µM (PKCζ(h)): -7%; inhibition at 0.1 µM (STK33(h)): 8%; inhibition at 0.1 µM (Lyn(h)): 100%; inhibition at 0.1 µM (GSK3β(h)): -15%; inhibition at 0.1 µM (BrSK2(h)): 60%; inhibition at 0.1 µM (Mnk2(h)): 1%; inhibition at 0.1 µM (PAK6(h)): 0% |
| Cc1cc2c(F)c(Oc3nc(Nc4cc(C5CC5)[nH]n4)cc(N4CCNCC4)n3)ccc2[nH]1 [Compound 11, N-(5-cyclopropyl-1H-pyrazol-3-yl)-2-((4-fluoro-2-methyl-1H-indol-5-yl)oxy)-6-(piperazin-1-yl)pyrimidin-4-amine] | 51 | -10 | 39 | 22 | 87 | -17 | 71 | -5 | 34 | 101 | 8 | -10 | -12 | 86 | 1 | 72 | -11 | -7 | 29 | -1 | inhibition at 0.1 µM (MRCKα(h)): -3%; inhibition at 0.1 µM (PAK2(h)): 0%; inhibition at 0.1 µM (TAO3(h)): 8%; inhibition at 0.1 µM (FGFR2(N549H)(h)): 100%; inhibition at 0.1 µM (Snk(h)): 5%; inhibition at 0.1 µM (PKCζ(h)): -14%; inhibition at 0.1 µM (STK33(h)): -4%; inhibition at 0.1 µM (Lyn(h)): 99%; inhibition at 0.1 µM (GSK3β(h)): 19%; inhibition at 0.1 µM (BrSK2(h)): 48%; inhibition at 0.1 µM (Mnk2(h)): -2%; inhibition at 0.1 µM (PAK6(h)): 35% |
